Patent US20030203975A1, “Anti-cancer agents” (priority 1998, published 2003)

What was measured:
[1] = tested on: MAC 15A adenocarcinoma of the colon; experiment: In vitro chemosensitivity against MAC 15A adenocarcinoma (MTT assay); type: cell-based; conditions: Mus musculus, MAC15A, 96 hours continuous exposure
Procedure: In Vitro Activity Against MAC 15A Adenocarcinoma.
MAC 15A cells were grown in RPMI 1640 medium supplemented with 10% foetal calf serum containing a 1% antibiotic mixture under standard tissue culture conditions and were maintained at 37° C. in a humidified atmosphere of 5% CO2 in air. Cells were harvested from a stock culture in exponential growth phase and plated in 96-well flat-bottomed plates to achieve a final density of 2×10^3 cells per well. After 2 hours incubation medium was replaced with either fresh medium containing 0.5% DMSO (control) or medium containing test compound dissolved in DMSO at a concentrations from 10 mM to 1 nM. Chemosensitivity was assessed using MTT assay by the method of Plumb et al Cancer Research 49 (1989) 4435-4440.
Following 96 hours continuous exposure to drug at 37° C. cells were incubated with fresh drug-free medium immediately prior to addition of MTT solution (5 mg/ml). Medium and MTT were removed after 4 hours and 150 μl of DMSO was added. For each plate the absorbance of the resulting solution was measured at the analytical wavelength 550 nm for formazan product, using a Labsystem Mutiskan. IC50 values were obtained from growth curves of drug concentration against % survival and are expressed in μm.

[2] = tested on: DNA: Calf thymus sodium salt; experiment: DNA binding assay, ethidium bromide displacement; design: key: NB = Not binding; conditions: concentration required to displace 50% of the ethidium bromide; 20 μM DNA, 2 μM dye
Procedure: (§1) The propensity of selected compounds to bind to DNA in the absence of topos was measured in order to identify compounds that would bind weakly, or not at all. […] A […] was used determine binding constants of the compound to DNA by displacement of either ethidium bromide (an intercalator) or Hoechst dye 33258 (a groove binder) which form a DNA-bound fluorescent complex measured by fluorescence spectroscopy.
(§2) DNA Binding Assay Protocol
(§3) In order to detect the strength and mode of anthraquinone compound binding to DNA the displacement of known DNA binders was detected by measuring the fluorescence of a DNA/fluorescent compound complex. The addition of known concentrations of ethidium bromide, an interchelator, and Hoescht Dye, a groove binder, cause a fluorescent DNA/binder complex that can be detected and the fluorescence quantified. The addition of anthraquinone compounds displaces the interchelators or groove binders, depending on the compound mode of DNA binding, and therefore reduces the fluorescence accordingly. The preferred binding action of compounds can be quantified by determining the reduction in fluorescence resulting from a given concentration of compound. The quantification of a compounds ability to bind to DNA is expressed, as the concentration required to displace 50% of the ethidium bromide or Hoescht Dye, thus reducing the fluorescence by 50%. Therefore, the values produced are QE50 for ethidium, bromide, or QH50 for Hoescht Dye.
(§4) Compound: 300, 60, 10 and 10/6gM (1.66 μM) solution concentrations were prepared for use in the assay to produce a range of compound. Concentrations. 100, 200 and 300 μl of each dilution were used in the assay reaction. This provides a range of concentrations: −30, 20, 10, 6, 4, 2, 1, 0.67, 0.33, 0.17, 0.11, 0.06, 0.00 μM in the assay environment. Intermediate concentrations can be utilised to enhance the accuracy of the displacement concentration determination.
(§5) Buffer: 100 mM Tris, NaCI 500 mM. DNA: Calf thymus sodium salt. Stock solution of 200 μM was prepared in 10× assay buffer. Dilution of DNA therefore provided the correct concentration of assay buffer in the assay cell.300 μg DNA was used in 3 ml reaction mixture therefore 20 μM DNA concentration. Hoescht Dye 2 μM final concentration, therefore 100 μl of a 60 μM stock solution was added to a 3 ml assay. Ethidium Bromide 2 μM final concentration therefore 100 μl of a 60 μM stock solution was added to a 3 ml assay. Distilled H2O Water was added to produce 3 ml reaction volume. Order of addition: 1. DNA, 2. Water, 3. Drug, 4. Dye
(§6) The assay was completed with both Hoescht Dye and Ethidium. Bromide for each compound. The ethidium bromide is a DNA inter-chelator, Hoescht Dye is a minor groove binder. 100, 200 and […] of the lowest compound dilution was assayed. This procedure was repeated with all further dilution's. This provided a curve of fluorescence intensity decrease with increasing compound concentration. QE50 and QH50 values were determined by extrapolating the concentration of compound at the point where the fluorescence intensity was reduced by 50%. Controls involving compound only and ethidium. bromide or Hoechst Dye without compound were carried out for each experiment. Two readings for each concentration of compound were performed per experiment, each experiment was repeated at least three times. Fluorometer: Perkin Elmer Luminescence Spectrometer LS 50B.

[3] = tested on: DNA: Calf thymus sodium salt; experiment: DNA binding assay, Hoechst dye displacement; design: key: NB = Not binding; conditions: concentration required to displace 50% of the Hoescht Dye; 20 μM DNA, 2 μM dye
Procedure: as §1, §2, §3, §4, §5, §6

[4] = target: Topoisomerase IIα (Homo sapiens, UniProt P11388); experiment: Topo II relaxation assay; type: biochemical; design: key: ‘—’ = Not active; conditions: unit not given; compound at 1, 10, 25 and 50 μM in protocol
Sequence of Topoisomerase IIα (P11388 whole entry): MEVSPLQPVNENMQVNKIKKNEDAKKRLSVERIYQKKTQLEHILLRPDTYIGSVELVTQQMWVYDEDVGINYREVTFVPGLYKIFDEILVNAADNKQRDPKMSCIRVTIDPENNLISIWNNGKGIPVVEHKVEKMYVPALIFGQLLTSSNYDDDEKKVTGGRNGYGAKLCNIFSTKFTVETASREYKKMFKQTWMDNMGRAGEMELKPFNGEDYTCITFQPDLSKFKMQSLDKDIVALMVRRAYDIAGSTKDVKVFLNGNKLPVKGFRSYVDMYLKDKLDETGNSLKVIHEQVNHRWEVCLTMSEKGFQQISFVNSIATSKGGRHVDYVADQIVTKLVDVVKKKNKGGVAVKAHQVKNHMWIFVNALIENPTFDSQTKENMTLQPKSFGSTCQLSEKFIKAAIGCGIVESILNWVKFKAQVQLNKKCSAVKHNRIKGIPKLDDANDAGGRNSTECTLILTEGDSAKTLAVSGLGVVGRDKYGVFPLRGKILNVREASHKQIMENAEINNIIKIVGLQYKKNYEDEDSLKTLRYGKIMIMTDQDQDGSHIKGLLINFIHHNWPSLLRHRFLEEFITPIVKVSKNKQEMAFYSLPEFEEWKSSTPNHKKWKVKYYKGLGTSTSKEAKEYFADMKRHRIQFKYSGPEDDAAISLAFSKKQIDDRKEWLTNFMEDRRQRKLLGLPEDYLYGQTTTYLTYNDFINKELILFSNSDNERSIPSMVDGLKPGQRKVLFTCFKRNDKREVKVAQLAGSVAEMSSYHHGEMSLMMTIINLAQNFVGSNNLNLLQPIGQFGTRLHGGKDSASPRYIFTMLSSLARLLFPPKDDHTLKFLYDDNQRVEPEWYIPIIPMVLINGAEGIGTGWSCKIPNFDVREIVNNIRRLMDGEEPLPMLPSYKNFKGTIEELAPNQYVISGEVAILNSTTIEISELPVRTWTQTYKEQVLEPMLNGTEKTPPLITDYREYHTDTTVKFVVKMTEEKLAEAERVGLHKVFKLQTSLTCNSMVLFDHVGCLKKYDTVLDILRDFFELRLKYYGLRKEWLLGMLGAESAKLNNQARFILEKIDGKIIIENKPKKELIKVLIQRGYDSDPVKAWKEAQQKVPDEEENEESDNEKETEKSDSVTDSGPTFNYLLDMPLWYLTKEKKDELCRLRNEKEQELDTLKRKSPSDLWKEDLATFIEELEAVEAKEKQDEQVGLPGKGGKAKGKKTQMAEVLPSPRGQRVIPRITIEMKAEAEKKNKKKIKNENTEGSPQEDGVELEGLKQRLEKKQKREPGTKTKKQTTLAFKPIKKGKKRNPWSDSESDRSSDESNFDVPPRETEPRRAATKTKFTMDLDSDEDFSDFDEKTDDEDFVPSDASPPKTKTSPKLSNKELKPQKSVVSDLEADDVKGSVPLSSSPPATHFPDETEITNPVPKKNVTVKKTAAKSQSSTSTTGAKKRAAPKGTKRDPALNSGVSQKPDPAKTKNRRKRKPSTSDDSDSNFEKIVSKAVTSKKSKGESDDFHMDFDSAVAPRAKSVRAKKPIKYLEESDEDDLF
Procedure: (§7) Topo II Relaxation Assay Protocol
(§8) 10×Topo II Relaxation Buffer
(§9) 500 mM Tris-HCl (pH 7.5); 100 mM mgCI2; 50 mM EDTA; 300 mg/mI BSA; 10 mM DTT; −20° C.

[5] = target: Topoisomerase IIβ (Homo sapiens, UniProt Q02880); experiment: Topo II relaxation assay; type: biochemical; design: key: ‘—’ = Not active; conditions: unit not given; compound at 1, 10, 25 and 50 μM in protocol
Sequence of Topoisomerase IIβ (Q02880 whole entry): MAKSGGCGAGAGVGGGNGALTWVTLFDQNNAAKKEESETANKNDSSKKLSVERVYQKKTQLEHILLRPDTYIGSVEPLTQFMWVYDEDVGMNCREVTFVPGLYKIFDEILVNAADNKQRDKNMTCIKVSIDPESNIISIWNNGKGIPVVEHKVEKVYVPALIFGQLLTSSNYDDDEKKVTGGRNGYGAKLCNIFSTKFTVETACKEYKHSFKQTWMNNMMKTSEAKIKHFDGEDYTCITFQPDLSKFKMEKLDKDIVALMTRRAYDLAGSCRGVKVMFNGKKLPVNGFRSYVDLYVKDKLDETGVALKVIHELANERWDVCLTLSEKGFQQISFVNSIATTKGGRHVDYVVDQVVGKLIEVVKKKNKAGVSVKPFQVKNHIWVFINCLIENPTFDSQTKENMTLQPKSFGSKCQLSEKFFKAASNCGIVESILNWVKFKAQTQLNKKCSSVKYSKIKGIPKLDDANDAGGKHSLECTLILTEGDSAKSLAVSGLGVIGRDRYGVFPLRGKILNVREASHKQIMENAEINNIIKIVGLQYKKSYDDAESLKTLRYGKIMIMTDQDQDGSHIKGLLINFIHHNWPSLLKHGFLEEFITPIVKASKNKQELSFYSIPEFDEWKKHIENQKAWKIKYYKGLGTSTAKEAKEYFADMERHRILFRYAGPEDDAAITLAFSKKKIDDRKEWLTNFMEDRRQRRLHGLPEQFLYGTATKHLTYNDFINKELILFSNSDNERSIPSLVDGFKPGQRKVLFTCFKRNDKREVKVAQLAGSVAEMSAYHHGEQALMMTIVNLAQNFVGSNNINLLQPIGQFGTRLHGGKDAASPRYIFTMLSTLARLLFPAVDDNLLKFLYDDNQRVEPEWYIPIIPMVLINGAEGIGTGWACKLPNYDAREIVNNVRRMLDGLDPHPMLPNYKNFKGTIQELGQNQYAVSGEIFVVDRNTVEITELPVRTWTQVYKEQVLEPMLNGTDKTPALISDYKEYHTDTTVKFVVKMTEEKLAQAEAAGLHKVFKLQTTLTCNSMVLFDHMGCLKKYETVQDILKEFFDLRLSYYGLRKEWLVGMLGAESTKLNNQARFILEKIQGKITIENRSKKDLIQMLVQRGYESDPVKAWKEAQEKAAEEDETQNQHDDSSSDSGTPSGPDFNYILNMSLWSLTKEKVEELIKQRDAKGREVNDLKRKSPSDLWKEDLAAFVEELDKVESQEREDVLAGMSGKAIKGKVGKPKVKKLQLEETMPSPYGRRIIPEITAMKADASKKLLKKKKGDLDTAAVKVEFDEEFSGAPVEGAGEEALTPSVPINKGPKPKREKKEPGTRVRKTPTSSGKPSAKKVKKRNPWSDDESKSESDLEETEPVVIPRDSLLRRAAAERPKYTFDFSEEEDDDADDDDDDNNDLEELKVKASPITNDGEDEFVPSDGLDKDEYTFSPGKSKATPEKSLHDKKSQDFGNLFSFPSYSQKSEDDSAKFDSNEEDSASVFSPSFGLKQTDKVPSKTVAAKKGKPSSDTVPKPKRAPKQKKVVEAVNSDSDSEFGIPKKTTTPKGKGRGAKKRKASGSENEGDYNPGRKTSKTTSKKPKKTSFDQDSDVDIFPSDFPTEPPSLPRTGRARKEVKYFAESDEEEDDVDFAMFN
Procedure: as §7, §8, §9

## C[C@H](N)C(=O)OCCCNc1cccc2c1C(=O)c1ccccc1C2=O.O=C(O)C(F)(F)F [Example 29, 1-[3-(L-alanyloxy)propylamino]anthracene-9,10-dione trifluoroacetate]
[1]
  IC50: 9.7 µM
[2]
  QE50 Intercalating: NB
[3]
  QH50 Minor groove binding: NB
other
  melting point: 126 °C

## N[C@@H](Cc1ccccc1)C(=O)OCCNc1cccc2c1C(=O)c1ccccc1C2=O.O=C(O)C(F)(F)F [Example 33, 1-[2-(L-phenylalanyloxy)ethylamino]anthracene-9,10-dione trifluoro-acetate]
[2]
  QE50 Intercalating: NB
[3]
  QH50 Minor groove binding: NB

## N[C@@H](Cc1c[nH]c2ccccc12)C(=O)OCCCNc1cccc2c1C(=O)c1ccccc1C2=O.O=C(O)C(F)(F)F [Example 41, 1-[3-(L-tryptophyloxy)propylamino]anthracene-9,10-dione trifluoro-acetate]
[4]
  TopIIα Relax.: —

## O=C(O)C(F)(F)F.O=C1c2ccccc2C(=O)c2c(NCCCCOC(=O)[C@@H]3CCCN3)cccc21 [Example 47, 1-[4-(L-prolyloxy)butylamino]anthracene-9,10-dione trifluoroacetate]
[4]
  TopIIα Relax.: 5
[5]
  TopIIβ Relax.: 10

## CC(C)[C@H](N)C(=O)OCCCCNc1ccc(O)c2c1C(=O)c1ccccc1C2=O.O=C(O)C(F)(F)F [Example 53, 4-hydroxy-1-[4-(L-valyloxy)butylamino]anthracene-9,10-dione tri-fluoroacetate]
[1]; 96 h
  IC50: 5.3 µM
[2]
  QE50 Intercalating: 2.9 µM
[3]
  QH50 Minor groove binding: 4.4 µM

## NCC(=O)OCCNc1cccc2c1C(=O)c1ccccc1C2=O.O=C(O)C(F)(F)F [Example 59, 1-[2-(glycyloxy)ethylamino]anthracene-9,10-dione trifluoroacetate]
[1]
  IC50: 3.5 µM
other
  melting point: 180 °C

## NCC(=O)OCCCNc1cccc2c1C(=O)c1ccccc1C2=O.O=C(O)C(F)(F)F [Example 61, 1-[3-(glycyloxy)propylamino]anthracene-9,10-dione trifluoroacetate]
[1]
  IC50: 10.6 µM
other
  melting point: 198 °C

## C[C@@H](N)C(=O)OCCCNc1cccc2c1C(=O)c1ccccc1C2=O.O=C(O)C(F)(F)F [Example 63, 1-[3-(D-alanyloxy)propylamino]anthracene-9,10-dione trifluoroacetate]
[1]
  IC50: 6.9 µM
[2]
  QE50 Intercalating: NB
[3]
  QH50 Minor groove binding: NB
other
  melting point: 134 °C

## N[C@H](Cc1ccccc1)C(=O)OCCCNc1cccc2c1C(=O)c1ccccc1C2=O.O=C(O)C(F)(F)F [Example 65, 1-[3-(D-phenylalanyloxy)propylamino]anthracene-9,10-dione trifluoro-acetate]
[1]
  IC50: 4.8 µM
other
  melting point: 102 °C

## O=C(O)C(F)(F)F.O=C1c2ccccc2C(=O)c2c(NCCCOC(=O)[C@@H]3CCCN3)cccc21 [Example 67, 1-[3-(L-prolyloxy)propylamino]anthracene-9,10-dione trifluoroacetate]
[1]
  IC50: 8.3 µM
[2]
  QE50 Intercalating: NB
[3]
  QH50 Minor groove binding: NB
other
  melting point: 66 °C

## O=C(O)C(F)(F)F.O=C1c2ccccc2C(=O)c2c(NCCCOC(=O)[C@H]3CCCN3)cccc21 [Example 69, 1-[3-(D-prolyloxy)propylamino]anthracene-9,10-dione trifluoroacetate]
[1]
  IC50: 10.2 µM
[2]
  QE50 Intercalating: NB
[3]
  QH50 Minor groove binding: NB
other
  melting point: 66 °C

## CN(CC(=O)OCCCCNc1cccc2c1C(=O)c1ccccc1C2=O)C(=O)OC(C)(C)C [Example 82, 1-[4-(N-tertiarybutoxycarbonylsarcosyloxy)butylamino]anthracene-9,10-dione]
other
  melting point: 90 °C

## CNCC(=O)OCCCCNc1cccc2c1C(=O)c1ccccc1C2=O.O=C(O)C(F)(F)F [Example 83, 1-[4-(sarcosyloxy)butylamino]anthracene-9,10-dione trifluoroacetate]
[1]
  IC50: 7.2 µM
other
  melting point: 132 °C

## CC[C@H](N)C(=O)OCCCCNc1cccc2c1C(=O)c1ccccc1C2=O.O=C(O)C(F)(F)F [Example 87, (S)-1-[4-(2-aminobutanoyloxy)butylamino]-anthracene-9,10-dione trifluoroacetate]
[1]
  IC50: 3 µM
other
  melting point: 118 °C

## CN[C@@H](C)C(=O)OCCCCNc1cccc2c1C(=O)c1ccccc1C2=O.O=C(O)C(F)(F)F [Example 91, 1-[4-(N-methyl-L-alanyloxy)butylamino]anthracene-9,10-dione tri-fluoroacetate]
[1]; 96 h
  IC50: 4.8 µM
other
  melting point: 84 °C

## NCC(=O)OCCCNc1ccc(O)c2c1C(=O)c1ccccc1C2=O.O=C(O)C(F)(F)F [Example 123, 4-hydroxy-1-[3-(glycyloxy)propylamino]anthracene-9,10-dione tri-fluoroacetate]
[1]; 96 h
  IC50: 0.3 µM
other
  melting point: 188 °C

## NCC(=O)OCCCNc1ccc(O)c2c1C(=O)c1c(O)cccc1C2=O.O=C(O)C(F)(F)F [Example 127, 4,8-dihydroxy-1-[3-(glycyloxy)propylamino]anthracene-9,10-dione trifluoroacetate]
[1]
  IC50: 1.3 µM
other
  melting point: 196 °C

## NCC(=O)N1CCC[C@H]1C(=O)OCCCNc1cccc2c1C(=O)c1ccccc1C2=O.O=C(O)C(F)(F)F [Example 131, 1-[3-(glycyl-L-prolyloxy)propylamino]anthracene-9,10-dione tri-fluoroacetate]
[1]; 96 h
  IC50: 2.5 µM
other
  melting point: 146 °C

## CC(C)C[C@H](N)C(=O)NCC(=O)OCCCNc1cccc2c1C(=O)c1ccccc1C2=O.O=C(O)C(F)(F)F [Example 133, 1-[3-(L-leucylglycyloxy)propylamino]anthracene-9,10-dione trifluoroacetate]
[1]
  IC50: 1.2 µM
other
  melting point: 100 °C

## O=C(O)C(F)(F)F.O=C1c2ccccc2C(=O)c2c(NCCOC(=O)[C@@H]3CCCN3)cccc21 [Example 137, 1-[2-(prolyloxy)ethylamino]anthracene-9,10-dione trifluoroacetate]
[1]
  IC50: 33.5 µM
[2]
  QE50 Intercalating: NB
[3]
  QH50 Minor groove binding: NB

## O=C1c2c(O)ccc(O)c2C(=O)c2c(NCCNCCO)ccc(NCCNCCO)c21 [Mitoxantrone, reference compound]
[2]
  QE50 Intercalating: 0.8 ± 0.3 µM
[3]
  QH50 Minor groove binding: 1.2 ± 0.3 µM
